Experimental data: US20160220569A1, “CDK4/6 Inhibitor Dosage Formulations For The Protection Of Hematopoietic Stem And Progenitor Cells During Chemotherapy” (G1 Therapeutics, Inc., priority 2015, published 2016)
Values joined by “and” are separate entries in the source; they are usually repeats but may differ in a detail not shown here. Equal values may be shown once. Read-outs that look alike come from different tables or passages of the source.

What was measured:
[1] = 14-day toxicokinetic study in dogs; assay type: in vivo, dogs (Beagle); conditions: male and female dogs
Method: Dogs in the control group were not exposed to Compound 1 and so were a true control group.
The required weight of Compound 1 di-HCl was added to an appropriate size vessel. […] The vessel was placed on a stirring hotplate and the formulation heated to a temperature of 30-35° C. The contents of the vessel were allowed to stir at 30-35° C. or a stir plate until all test article appeared to be dissolved, and for a period of at least 1 hour. The pH of the formulation was verified and adjusted to 4.0-4.5 using 1N HCl or 1N NaOH as required. The formulation was transferred into an appropriate size graduated cylinder. Sufficient vehicle control will be added to the cylinder to obtain the final desired concentration of formulated test article. The completed stock formulation was dispensed into several amber glass bottles as aliquots for each day of dosing. These formulations were stored at controlled room temperature (15-30° C.) until used for dose administration.
The beagle dog was chosen for this study as it is a species that is used for non-clinical toxicity and pharmacokinetic evaluations and satisfies the regulatory requirement for non-clinical safety studies in a non-rodent species. […]

[2] = Hematology (ANC, lymphocytes, hemoglobin, platelets) during etoposide and carboplatin chemotherapy; assay type: in vivo, human; conditions: 200 mg/m^2 with etoposide and carboplatin
Excerpt: As shown in FIG. 63A the absolute neutrophil count though affected by chemotherapy rarely dipped below the G1 phase. As shown in FIG. 63B the lymphocyte count though affected by chemotherapy rarely dipped below the G1 phase. As shown in FIG. 63C the hemoglobin concentration though affected by chemotherapy rarely dipped below the G1 phase. As shown in FIG. 63D the platelet count though affected by chemotherapy rarely dipped below the G1 phase.

[3] = Compound 1 PK dosed Days 1-5 with topotecan; assay type: in vivo, human; conditions: for pre-dose concentration averaging: Day 4, mean; for AUC(0-inf) / Cmax / half-life: human, plasma, intravenous; for AUC(0-inf): read-out: AUCinf; for Cmax: read-out: Cmax; for half-life: read-out: t½ (converted)
Method: Analysis of plasma concentration versus time data for calculation of standard pharmacokinetic (PK) parameters following intravenous infusion administration was conducted using Phoenix WinNonlin version 6.3 using a nominal infusion duration and scheduled blood sampling times.

[4] = 200 mg/m^2 with Topotecan 0.75 mg/m^2 (Cohort 3), Day 1, Max
[5] = 200 mg/m^2 with Topotecan 0.75 mg/m^2 (Cohort 3), Day 1, individual subjects
[6] = 200 mg/m^2 with Topotecan 0.75 mg/m^2 (Cohort 3), Day 4, individual subjects
[7] = 200 mg/m^2 with Topotecan 1.25 mg/m^2 (Cohort 2), Day 1, Max
[8] = 200 mg/m^2 with Topotecan 1.25 mg/m^2 (Cohort 2), Day 1, Min
[9] = 200 mg/m^2 with Topotecan 1.25 mg/m^2 (Cohort 2), Day 1, individual subjects
[10] = 200 mg/m^2 with Topotecan […]^2 (Cohort 1), Day 1, Max
[11] = 200 mg/m^2 with Topotecan […]^2 (Cohort 1), Day 1, individual subjects
[12] = 200 mg/m^2 with Topotecan 0.75 mg/m^2 (Cohort 3), Day 1, Geo. Mean
[13] = 200 mg/m^2 with Topotecan 0.75 mg/m^2 (Cohort 3), Day 1, Mean
[14] = 200 mg/m^2 with Topotecan 0.75 mg/m^2 (Cohort 3), Day 1, Median
[15] = 200 mg/m^2 with Topotecan 0.75 mg/m^2 (Cohort 3), Day 4, Geometric Mean
[16] = 200 mg/m^2 with Topotecan 0.75 mg/m^2 (Cohort 3), Day 4, Mean
[17] = 200 mg/m^2 with Topotecan 0.75 mg/m^2 (Cohort 3), Day 4, Median
[18] = 200 mg/m^2 with Topotecan 1.25 mg/m^2 (Cohort 2), Day 1, Geo. Mean
[19] = 200 mg/m^2 with Topotecan 1.25 mg/m^2 (Cohort 2), Day 1, Mean

For `CN1CCN(c2ccc(Nc3ncc4cc5n(c4n3)C3(CCCCC3)CNC5=O)nc2)CC1` [Compound 1, 2′-((5-(4-methylpiperazin-1-yl)pyridin-2-yl)amino)-7′,8′-dihydro-6′H-spiro[cyclohexane-1,9′-pyrazino[1′,2′:1,5]pyrrolo[2,3-d]pyrimidin]-6′-one], the “systemic exposure with increasing dose level” value [1] was “increased roughly proportionally”, the “myelotoxicity (ANC, lymphocyte count, hemoglobin, platelet count)” value [2] was “no clinically relevant myelotoxicity” and the AUC24.5 [3, 4] was 2540 ng·h/mL. It also gave an AUCinf [3, 4] of 2660 ng·h/mL, a t½ [3, 4] of 9.24 h and a t½ ([3]; 200 mg/m^2 with Topotecan 0.75 mg/m^2 (Cohort 3), Day 1, Min) of 6.64 h. The AUC24.5 [3, 5] was 2540 ng·h/mL, the AUCinf [3, 5] was 2240 ng·h/mL and 2660 ng·h/mL and the t½ [3, 5] was 6.64 h and 9.24 h and 6.69 h. For the same molecule, the t½ ([3]; 200 mg/m^2 with Topotecan 0.75 mg/m^2 (Cohort 3), Day 4, Min) was 6.87 h, the t½ [3, 6] was 9.54 h and 6.87 h and the AUC24.5 [3, 7] was 2450 ng·h/mL. The AUCinf [3, 7] was 2720 ng·h/mL, the AUC24.5 [3, 8] was 2130 ng·h/mL and the t½ [3, 8] was 6.14 h. The AUC24.5 [3, 9] was 2450 ng·h/mL and 2130 ng·h/mL, the AUCinf [3, 9] was 2720 ng·h/mL and 2430 ng·h/mL and the t½ ([3]; 200 mg/m^2 with Topotecan 1.25 mg/m^2 (Cohort 2), Day 4, Max) was 10.6 h. For the same molecule, the t½ ([3]; 200 mg/m^2 with Topotecan 1.25 mg/m^2 (Cohort 2), Day 4, Min) was 7.15 h, the t½ ([3]; 200 mg/m^2 with Topotecan 1.25 mg/m^2 (Cohort 2), Day 4, individual subjects) was 9.10 h and 10.6 h and the AUCinf [3, 10] was 2430 ng·h/mL. For the same molecule, the t½ [3, 10] was 6.24 h, the t½ ([3]; 200 mg/m^2 with Topotecan […]^2 (Cohort 1), Day 1, Min) was 5.60 h and the AUCinf [3, 11] was 2430 ng·h/mL. It also gave a t½ [3, 11] of 6.24 h, a t½ ([3]; 200 mg/m^2 with Topotecan […]^2 (Cohort 1), Day 4, Max) of 9.15 h and a t½ ([3]; 200 mg/m^2 with Topotecan […]^2 (Cohort 1), Day 4, Min) of 6.96 h. It also gave a t½ ([3]; 200 mg/m^2 with Topotecan […]^2 (Cohort 1), Day 4, individual subjects) of 9.15 h, a pre-dose concentration averaging ([3]; Cohort 2 (Topotecan 1.25 mg/m^2)) of 33.3 ng/mL and a pre-dose concentration averaging ([3]; Cohort 3 (Topotecan 0.75 mg/m^2)) of 27.1 ng/mL. It also gave an AUC(0-inf) [3, 12] of 2170 ng·h/mL, a Cmax [3, 12] of 1060 ng/mL and a half-life [3, 12] of 7.33 h. It also gave an AUC(0-inf) [3, 13] of 2200 ng·h/mL, a Cmax [3, 13] of 1140 ng/mL and a half-life [3, 13] of 7.4 h. It also gave an AUC(0-inf) [3, 14] of 2220 ng·h/mL, a half-life [3, 14] of 6.85 h and a half-life [3, 5] of 7.01 h. For the same molecule, the Cmax [3, 15] was 1200 ng/mL, the half-life [3, 15] was 8.69 h and the Cmax [3, 16] was 1330 ng/mL. For the same molecule, the half-life [3, 16] was 8.81 h, the Cmax [3, 17] was 1590 ng/mL and the half-life [3, 17] was 8.82 h. For the same molecule, the half-life [3, 6] was 10.7 h, the AUC(0-inf) [3, 18] was 2490 ng·h/mL and the Cmax [3, 18] was 895 ng/mL. It also gave a half-life [3, 18] of 7.77 h, an AUC(0-inf) [3, 19] of 2490 ng·h/mL and a half-life [3, 19] of 7.87 h. It also gave an AUC(0-inf) ([3]; 200 mg/m^2 with Topotecan 1.25 mg/m^2 (Cohort 2), Day 1, Median) of 2430 ng·h/mL.
